Here are results for three molecules from patent US10570179B2, “Substituted urea depsipeptide analogs as activators of the CLPP endopeptidase” (priority 2016, dated 2020).

A word on the EC50: it is the midpoint of the concentration-response curve. Low readings indicate an effect from little substance, high ones a need for much substance.

Experiment [1] has as its target T1, S. aureus ClpP (Sa-ClpP) (Staphylococcus aureus, UniProt Q2G036).
T1 construct: made in house; host or cells: E. coli BL21 (DE3)
As to the kind of experiment: Casein-BODIPY digestion assay (ClpP activation). The class given is biochemical.

Experiment [2] concerns S. aureus ΔClpP. As to the kind of experiment: Minimal inhibitory concentration, microbroth dilution. Particulars: MIC; ClpP inactivated. The class given is cell-based, Staphylococcus aureus. The procedure, abridged: (§1)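 Compound was diluted twofold in the appropriate broth. Bacterial suspension (approx. 10^5 cfu/mL) was then added in equal volume, giving a maximum test concentration of 200 μM. After aerobic overnight incubation at 37 °C, wells were inspected visually for growth.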
Background: Dilution methods test growth across graded concentrations, often in twofold steps.

In experiment [3] the test system is S. aureus USA 300. Described as above. The class given is cell-based. The following applies: Staphylococcus aureus, USA300, read-out: Minimal Inhibitory Concentrations (μM) S. aureus USA 300, MIC. In short, it runs like this: as §1
For experiment [4], the system named is S. aureus ATCC 29213. Described as above. The class given is cell-based. Particulars: Staphylococcus aureus, ATCC29213, read-out: Minimal Inhibitory Concentrations (μM) S. aureus ATCC 29213, MIC. The procedure, abridged: as §1
Experiment [5] deals with MRSA NRS70. The experiment is described as above. The class given is cell-based. Particulars: Staphylococcus aureus, read-out: Minimal Inhibitory Concentrations (μM) MRSA NRS70, MIC. The procedure, abridged: as §1
The subject of experiment [6] is E. faecails. The experiment is described as above. The class given is cell-based. The following applies: Enterococcus faecalis, read-out: Minimal Inhibitory Concentrations (μM) E. faecails, MIC. In short, it runs like this: as §1

The structures appear in SMILES notation. Converted amounts (≈) assume the structure as drawn. Numbered stars: 1 amine (or outer) side, 2 acyl side, 3 side chain; on linkers, the order of the positions; unused ones are H or OH. Bridge positions count the residues as written; N and C are the ends. Square brackets hold non-standard residues; d marks the D form. Peptide text beside a SMILES is read from it. * marks the point of attachment. Morpholine(3S-CO) = O=C(O)[C@@H]1COCCN1; Phe(3-Me) = Cc1cccc(C[C@H](N)C(=O)O)c1; X4 = O=C1CN([*:1])[C@H](C(=O)[*:2])CN1; Pro(4R-Me) = C[C@H]1CN[C@H](C(=O)O)C1; Hyp = O=C(O)[C@@H]1C[C@@H](O)CN1; NH(3-Cl-phenyl) = Clc1cccc(N*)c1; NH(4-Cl-phenyl) = Clc1ccc(N*)cc1; aThr = C[C@H](O)[C@H](N)C(=O)O; CO = O=C([*:1])[*:2]

T1 sequence (Q2G036 whole entry): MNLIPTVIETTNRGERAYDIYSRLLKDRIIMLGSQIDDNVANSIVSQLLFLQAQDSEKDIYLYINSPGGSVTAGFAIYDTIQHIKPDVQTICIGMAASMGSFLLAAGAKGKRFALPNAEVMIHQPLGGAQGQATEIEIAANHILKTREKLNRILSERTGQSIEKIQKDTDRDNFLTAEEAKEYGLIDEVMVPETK

In turn, `Cc1cccc(C[C@H](NC(=O)Nc2cccc(Cl)c2)C(=O)N[C@@H]2C(=O)N3C[C@H](O)C[C@H]3C(=O)N3CCOC[C@H]3C(=O)N[C@@H](C)C(=O)N3C[C@H](C)C[C@H]3C(=O)O[C@H]2C)c1` [Compound 74, (S)-2-(3-(3-CHLOROPHENYL)UREIDO)-N-((6AS,8R,12S,13S,15AS,17R,21S,23AS)-8-HYDROXY-13,17,21-TRIMETHYL-6,11,15,20,23-PENTAOXOOCTADECAHYDRO-6H,11H,15H-[1,4]OXAZINO[3,4-I]DIPYRROLO[2,1-C:2′,1′-L][1]OXA[4,7,10,13]TETRAAZACYCLOHEXADECIN-12-YL)-3-(M-TOLYL)PROPANAMIDE] ({NH(3-Cl-phenyl)-CO}-[Phe(3-Me)][aThr][Hyp][Morpholine(3S-CO)]A[Pro(4R-Me)]; ester 2-C) showed an EC50 in experiment [1] of 0.25 ± 0.1 µM. Also, the “Minimal Inhibitory Concentrations (μM) S. aureus ΔClpP” value in experiment [2] was >20 µM. The MIC in experiment [3] was 1.25 µM (≈ 1.03 µg/mL); in experiment [4], 5 µM (≈ 4.12 µg/mL); in experiment [5], 5 µM (≈ 4.12 µg/mL); in experiment [6], > 20 µM.

The molecule `Cc1cccc(C[C@H](NC(=O)Nc2ccc(Cl)cc2)C(=O)N[C@@H]2C(=O)N3CCC[C@H]3C(=O)N3CC(=O)NC[C@H]3C(=O)N[C@@H](C)C(=O)N3C[C@H](C)C[C@H]3C(=O)O[C@H]2C)c1` [Compound 75, (S)-2-(3-(4-CHLOROPHENYL)UREIDO)-3-(M-TOLYL)-N-((6AS,12S,13S,15AS,17R,21S,23AS)-13,17,21-TRIMETHYL-3,6,11,15,20,23-HEXAOXOOCTADECAHYDRO-2H,6H,11H,15H-PYRAZINO[2,1-I]DIPYRROLO[2,1-C:2′,1′-L][1]OXA[4,7,10,13]TETRAAZACYCLOHEXADECIN-12-YL)PROPANAMIDE] ({NH(4-Cl-phenyl)-CO}-[Phe(3-Me)][aThr]P[X4]A[Pro(4R-Me)]; ester 2-C) showed an EC50 in experiment [1] of 1.21 ± 1 µM. Besides, the “Minimal Inhibitory Concentrations (μM) S. aureus ΔClpP” value in experiment [2] was >20 µM. The MIC in experiment [3] was 10 µM (≈ 8.21 µg/mL); in experiment [4] it was 20 µM (≈ 16.4 µg/mL); in experiment [5], 20 µM (≈ 16.4 µg/mL); in experiment [6], > 20 µM.

`Cc1cccc(C[C@H](NC(=O)Nc2cccc(Cl)c2)C(=O)N[C@@H]2C(=O)N3CCC[C@H]3C(=O)N3CC(=O)NC[C@H]3C(=O)N[C@@H](C)C(=O)N3C[C@H](C)C[C@H]3C(=O)O[C@H]2C)c1` [Compound 76, (S)-2-(3-(3-CHLOROPHENYL)UREIDO)-3-(M-TOLYL)-N-((6AS,12S,13S,15AS,17R,21S,23AS)-13,17,21-TRIMETHYL-3,6,11,15,20,23-HEXAOXOOCTADECAHYDRO-2H,6H,11H,15H-PYRAZINO[2,1-I]DIPYRROLO[2,1-C:2′,1′-L][1]OXA[4,7,10,13]TETRAAZACYCLOHEXADECIN-12-YL)PROPANAMIDE] ({NH(3-Cl-phenyl)-CO}-[Phe(3-Me)][aThr]P[X4]A[Pro(4R-Me)]; ester 2-C) yielded a concentration giving a half-maximal response (EC50) in experiment [1] of 5.02 µM. In experiment [2], the “Minimal Inhibitory Concentrations (μM) S. aureus ΔClpP” value is >20 µM. In addition, the MIC in experiment [3], in experiment [4], in experiment [5] and in experiment [6] was > 20 µM each time.
